System: 4 week-old rat DRGs
Assay: in vitro neurite outgrowth assay on immobilized AP-Nogo-66
Type: cell-based
Experimental: JNK is a member of the mitogen-activated protein kinase (MAP kinase) family which is abundantly expressed in axons and growth cones, and has been implicated in numerous roles including cell stress and cell proliferation. […] Briefly, 4 week-old rat DRGs were dissected, dissociated and plated onto immobilized substrates (AP (100 ng/cm^2) or AP-Nogo-66 (100 ng/cm^2)). Cells were cultured for 24 h before fixation with 4% paraformaldehyde and staining with a neuronal-specific anti-β-tubulin III antibody (Tuj-1, Covance). The average lengths of the longest neurite in individual neurons were measured from at least 150 neurons per condition, from duplicate wells and from three independent experiments, and quantified as described previously. Immunohistochemistry was performed using antibodies against p75 (Chemicon).

SMILES: Oc1c2ccccc2c2c3c(cccc13)N=N2 [SP600125]
- concentrations resulting in an abortion of neurite extension: above 5 μM
